Data: US8168592B2 (Amgen Inc., priority 2005, dated 2012)
Square brackets hold non-standard residues; d marks the D form. Peptide text beside a SMILES is read from it. Oic = O=C(O)[C@@H]1C[C@@H]2CCCC[C@@H]2N1; 1Nal = N[C@@H](Cc1cccc2ccccc12)C(=O)O; 2Nal = N[C@@H](Cc1ccc2ccccc2c1)C(=O)O; hArg = N=C(N)NCCCC[C@H](N)C(=O)O; Cit = NC(=O)NCCC[C@H](N)C(=O)O

Target: T1, CGRP1 receptor (Homo sapiens, UniProt O60894+Q16602)
T1 construct: SK-N-MC cells express CRLR and RAMP1, which form CGRP1 receptor; endogenous in cells; host or cells: SK-N-MC human neuroblastoma cells
Test: in vitro CGRP1 receptor mediated cAMP assay in SK-N-MC cells
Type: cell-based
Details: not given
Summary of the method: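 Intracellular cAMP served as the Gs-coupled CGRP1 readout in endogenously expressing SK-N-MC cells. After a 15-minute room-temperature step in plasma-free medium, cell lysates (30 minutes, 37° C) went into a competitive ELISA with a cAMP-AP conjugate and anti-cAMP antibody for 1 hour, then a 30-minute substrate enhancer step before reading.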

T1 sequence (Q16602 23-461): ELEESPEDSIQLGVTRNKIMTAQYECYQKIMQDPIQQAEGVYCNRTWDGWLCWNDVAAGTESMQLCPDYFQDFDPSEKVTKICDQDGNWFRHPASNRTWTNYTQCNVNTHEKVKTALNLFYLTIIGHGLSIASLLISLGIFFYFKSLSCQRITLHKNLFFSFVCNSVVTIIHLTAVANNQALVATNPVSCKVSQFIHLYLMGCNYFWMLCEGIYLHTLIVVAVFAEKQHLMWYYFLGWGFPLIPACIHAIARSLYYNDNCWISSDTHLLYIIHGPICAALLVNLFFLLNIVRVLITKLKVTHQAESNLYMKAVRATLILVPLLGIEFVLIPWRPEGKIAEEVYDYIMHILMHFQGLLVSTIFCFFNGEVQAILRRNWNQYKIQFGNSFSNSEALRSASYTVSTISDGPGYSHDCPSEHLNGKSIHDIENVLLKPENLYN
T1 sequence (O60894 27-148): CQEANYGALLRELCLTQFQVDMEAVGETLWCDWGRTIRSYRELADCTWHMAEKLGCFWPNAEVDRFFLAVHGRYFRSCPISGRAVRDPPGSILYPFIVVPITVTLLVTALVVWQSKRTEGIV

Compound | antagonist activity in cAMP assay, in words
SEQ ID NO:24 (WVTHRLAGLLSXSGGVVRKNFVPTDVGPFAF; CGRP peptide; MOD_RES (1)..(1): …ON; MISC_FEATURE (12)..(12): xaa=homoarginine; MISC_FEATURE (19)..(19): PEGylated; MOD_RES (31)..(31): AMIDATION) | retaining their CGRP1 receptor antagonist activity
SEQ ID NO:26 (WVTHXLAGLLSXSGGVVRKNFVPTDVGPFAF; CGRP peptide; MOD_RES (1)..(1): …ON; MISC_FEATURE (5)..(5): xaa=homoarginine; MISC_FEATURE (12)..(12): xaa=homoarginine; MISC_FEATURE (19)..(19): PEGylated; MOD_RES (31)..(31): AMIDATION) | antagonist activity returned to the levels of the two peptides with single substitutions

Same assay, conditions: Table 2A; read-out: IC50

Compound | IC50 [nM]
CC(=O)N[C@H](C(=O)N[C@H](C(=O)N[C@@H](Cc1c[nH]cn1)C(=O)N[C@@H](CCCNC(N)=O)C(=O)N[C@@H](CC(C)C)C(=O)N[C@@H](C)C(=O)NCC(=O)N[C@@H](CC(C)C)C(=O)N[C@@H](CC(C)C)C(=O)N[C@@H](CO)C(=O)N[C@@H](CCCNC(N)=O)C(=O)N[C@@H](CO)C(=O)NCC(=O)NCC(=O)N[C@H](C(=O)N[C@H](C(=O)N[C@@H](CCCCNC(=N)N)C(=O)N[C@@H](CCCCN)C(=O)N[C@@H](CC(N)=O)C(=O)N[C@@H](Cc1ccccc1)C(=O)N[C@H](C(=O)N1CCC[C@H]1C(=O)N[C@H](C(=O)N[C@@H](CC(=O)O)C(=O)N[C@H](C(=O)NCC(=O)N1[C@H](C(=O)N[C@@H](Cc2ccccc2)C(=O)N[C@@H](C)C(=O)N[C@@H](Cc2ccccc2)C(N)=O)C[C@@H]2CCCC[C@@H]21)C(C)C)[C@@H](C)O)C(C)C)C(C)C)C(C)C)[C@@H](C)O)C(C)C [compound 660] (Ac-VTH[Cit]LAGLLS[Cit]SGGVV[hArg]KNFVPTDVG[Oic]FAF-NH2) | 3
CC(=O)N[C@@H](Cc1c[nH]c2ccccc12)C(=O)N[C@H](C(=O)N[C@H](C(=O)N[C@@H](Cc1c[nH]cn1)C(=O)N[C@@H](CCCNC(N)=O)C(=O)N[C@@H](CC(C)C)C(=O)N[C@@H](C)C(=O)NCC(=O)N[C@@H](CC(C)C)C(=O)N[C@@H](CC(C)C)C(=O)N[C@@H](CO)C(=O)N[C@@H](CCCNC(N)=O)C(=O)N[C@@H](CO)C(=O)NCC(=O)NCC(=O)N[C@H](C(=O)N[C@H](C(=O)N[C@@H](CCCCNC(=N)N)C(=O)N[C@@H](CCCCN)C(=O)N[C@@H](CC(N)=O)C(=O)N[C@@H](Cc1ccc2ccccc2c1)C(=O)N[C@H](C(=O)N1CCC[C@H]1C(=O)N[C@H](C(=O)N[C@@H](CC(=O)O)C(=O)N[C@H](C(=O)NCC(=O)N1[C@H](C(=O)N[C@@H](Cc2ccccc2)C(=O)N[C@@H](C)C(=O)N[C@@H](Cc2ccccc2)C(N)=O)C[C@@H]2CCCC[C@@H]21)C(C)C)[C@@H](C)O)C(C)C)C(C)C)C(C)C)[C@@H](C)O)C(C)C [compound 137] (Ac-WVTH[Cit]LAGLLS[Cit]SGGVV[hArg]KN[2Nal]VPTDVG[Oic]FAF-NH2) | 2.66
CC(=O)N[C@@H](Cc1c[nH]c2ccccc12)C(=O)N[C@H](C(=O)N[C@H](C(=O)N[C@@H](Cc1c[nH]cn1)C(=O)N[C@@H](CCCNC(N)=O)C(=O)N[C@@H](CC(C)C)C(=O)N[C@@H](C)C(=O)NCC(=O)N[C@@H](CC(C)C)C(=O)N[C@@H](CC(C)C)C(=O)N[C@@H](CO)C(=O)N[C@@H](CCCNC(N)=O)C(=O)N[C@@H](CO)C(=O)NCC(=O)NCC(=O)N[C@H](C(=O)N[C@H](C(=O)N[C@@H](CCCCNC(=N)N)C(=O)N[C@@H](CCCCN)C(=O)N[C@@H](CC(N)=O)C(=O)N[C@@H](Cc1ccccc1)C(=O)N[C@H](C(=O)N1CCC[C@H]1C(=O)N[C@H](C(=O)N[C@@H](CC(=O)O)C(=O)N[C@H](C(=O)NCC(=O)N1CCC[C@H]1C(N)=O)C(C)C)[C@@H](C)O)C(C)C)C(C)C)C(C)C)[C@@H](C)O)C(C)C [compound 656] (Ac-WVTH[Cit]LAGLLS[Cit]SGGVV[hArg]KNFVPTDVGP-NH2) | > 1000
CC(=O)N[C@@H](Cc1c[nH]c2ccccc12)C(=O)N[C@H](C(=O)N[C@H](C(=O)N[C@@H](Cc1cnc[nH]1)C(=O)N[C@@H](CCCNC(N)=O)C(=O)N[C@@H](CC(C)C)C(=O)N[C@@H](C)C(=O)NCC(=O)N[C@@H](CC(C)C)C(=O)N[C@@H](CC(C)C)C(=O)N[C@@H](CO)C(=O)N[C@@H](CCCNC(N)=O)C(=O)N[C@@H](CO)C(=O)NCC(=O)NCC(=O)N[C@H](C(=O)N[C@H](C(=O)N[C@@H](CCCCNC(=N)N)C(=O)N[C@@H](CCCCN)C(=O)N[C@@H](CC(N)=O)C(=O)N[C@@H](Cc1ccccc1)C(=O)N[C@H](C(=O)N1CCC[C@H]1C(=O)N[C@H](C(=O)N[C@@H](CC(=O)O)C(=O)N[C@H](C(=O)NCC(=O)N(C)CC(=O)N[C@@H](Cc1ccccc1)C(=O)N[C@@H](C)C(=O)N[C@@H](Cc1ccccc1)C(N)=O)C(C)C)[C@@H](C)O)C(C)C)C(C)C)C(C)C)[C@@H](C)O)C(C)C [compound 672] | 3.19 to 4.42

Same assay, conditions: Table 2C; unconjugated peptide; read-out: Peptide IC50

Compound | IC50 [nM]
CC(=O)N[C@@H](Cc1c[nH]c2ccccc12)C(=O)N[C@H](C(=O)N[C@H](C(=O)N[C@@H](Cc1c[nH]cn1)C(=O)N[C@@H](CCCCNC(=N)N)C(=O)N[C@@H](CC(C)C)C(=O)N[C@@H](C)C(=O)NCC(=O)N[C@@H](CC(C)C)C(=O)N[C@@H](CC(C)C)C(=O)N[C@@H](CO)C(=O)N[C@@H](CCCNC(N)=O)C(=O)N[C@@H](CO)C(=O)NCC(=O)NCC(=O)N[C@H](C(=O)N[C@H](C(=O)N[C@@H](CCCCNC(=N)N)C(=O)N[C@@H](CCCCN)C(=O)N[C@@H](CC(N)=O)C(=O)N[C@@H](Cc1ccccc1)C(=O)N[C@H](C(=O)N1CCC[C@H]1C(=O)N[C@H](C(=O)N[C@@H](CC(=O)O)C(=O)N[C@H](C(=O)NCC(=O)N1CCC[C@H]1C(=O)N[C@@H](Cc1ccc2ccccc2c1)C(=O)N[C@@H](C)C(=O)N[C@@H](Cc1ccccc1)C(N)=O)C(C)C)[C@@H](C)O)C(C)C)C(C)C)C(C)C)[C@@H](C)O)C(C)C [compound 926] (Ac-WVTH[hArg]LAGLLS[Cit]SGGVV[hArg]KNFVPTDVGP[2Nal]AF-NH2) | 0.88
CC(=O)N[C@@H](Cc1c[nH]c2ccccc12)C(=O)N[C@H](C(=O)N[C@H](C(=O)N[C@@H](Cc1cnc[nH]1)C(=O)N[C@@H](CCCNC(=N)N)C(=O)N[C@@H](CC(C)C)C(=O)N[C@@H](C)C(=O)NCC(=O)N[C@@H](CC(C)C)C(=O)N[C@@H](CC(C)C)C(=O)N[C@@H](CO)C(=O)N[C@@H](CCCNC(N)=O)C(=O)N[C@@H](CO)C(=O)NCC(=O)NCC(=O)N[C@H](C(=O)N[C@H](C(=O)N[C@@H](CCCN=C(N)N)C(=O)N[C@@H](CCCCN)C(=O)N[C@@H](CC(N)=O)C(=O)N[C@@H](Cc1ccccc1)C(=O)N[C@H](C(=O)N1CCC[C@H]1C(=O)N[C@H](C(=O)N[C@@H](CC(=O)O)C(=O)N[C@H](C(=O)NCC(=O)N1CCC[C@H]1C(=O)N[C@@H](Cc1ccccc1)C(=O)N[C@@H](C)C(=O)N[C@@H](Cc1ccccc1)C(N)=O)C(C)C)[C@@H](C)O)C(C)C)C(C)C)C(C)C)[C@@H](C)O)C(C)C [compound 862] | 0.58
CC(=O)N[C@@H](Cc1cccc2ccccc12)C(=O)N[C@H](C(=O)N[C@@H](CCC(=O)O)C(=O)N[C@@H](Cc1c[nH]cn1)C(=O)N[C@@H](CCCCNC(=N)N)C(=O)N[C@@H](CC(C)C)C(=O)N[C@@H](CCCCN)C(=O)NCC(=O)N[C@@H](CC(C)C)C(=O)N[C@@H](CC(C)C)C(=O)N[C@@H](CO)C(=O)N[C@@H](CCCNC(N)=O)C(=O)N[C@@H](CO)C(=O)NCC(=O)N1CC[C@H]1C(=O)N[C@H](C(=O)N[C@H](C(=O)N[C@@H](CCCCNC(=N)N)C(=O)N[C@@H](CCCCN)C(=O)N[C@@H](CC(N)=O)C(=O)N[C@@H](Cc1ccccc1)C(=O)N[C@H](C(=O)N1CCC[C@H]1C(=O)N[C@H](C(=O)N[C@@H](CC(=O)O)C(=O)N[C@H](C(=O)NCC(=O)N1CCC[C@H]1C(=O)N[C@@H](Cc1ccccc1)C(=O)N[C@@H](C)C(=O)N[C@@H](Cc1ccccc1)C(N)=O)C(C)C)[C@@H](C)O)C(C)C)C(C)C)C(C)C)C(C)C [compound 910] | 2.31
CC(=O)N[C@@H](Cc1c[nH]c2ccccc12)C(=O)N[C@H](C(=O)N[C@H](C(=O)N[C@@H](Cc1c[nH]cn1)C(=O)N[C@@H](CCCNC(N)=O)C(=O)N[C@@H](CC(C)C)C(=O)N[C@@H](C)C(=O)NCC(=O)N[C@@H](CC(C)C)C(=O)N[C@@H](CC(C)C)C(=O)N[C@@H](CO)C(=O)N[C@@H](CCCNC(N)=O)C(=O)N[C@@H](CO)C(=O)NCC(=O)NCC(=O)N[C@H](C(=O)N[C@H](C(=O)N[C@@H](CCCCNC(=N)N)C(=O)N[C@@H](CCCCN)C(=O)N[C@@H](CC(N)=O)C(=O)N[C@@H](Cc1ccccc1)C(=O)N[C@H](C(=O)N1CCC[C@H]1C(=O)N[C@H](C(=O)N[C@@H](CC(=O)O)C(=O)N[C@H](C(=O)NCC(=O)N1[C@H](C(=O)N[C@@H](Cc2cccc3ccccc23)C(=O)N[C@@H](C)C(=O)N[C@@H](Cc2ccccc2)C(N)=O)C[C@@H]2CCCC[C@@H]21)C(C)C)[C@@H](C)O)C(C)C)C(C)C)C(C)C)[C@@H](C)O)C(C)C [compound 933] (Ac-WVTH[Cit]LAGLLS[Cit]SGGVV[hArg]KNFVPTDVG[Oic][1Nal]AF-NH2) | 0.88
Ac-WVTHRLAGLLSRPGGVVRKNFVPTDVGPFAF-NH2 [compound 860] | 1.42

Same assay, conditions: Table 2D; read-out: IC50

Compound | IC50 [nM]
CC(=O)N[C@@H](Cc1c[nH]c2ccccc12)C(=O)N[C@H](C(=O)N[C@H](C(=O)N[C@@H](Cc1c[nH]cn1)C(=O)N[C@@H](CCCNC(=N)N)C(=O)N[C@@H](CC(C)C)C(=O)N[C@@H](C)C(=O)NCC(=O)N[C@@H](CC(C)C)C(=O)N[C@@H](CC(C)C)C(=O)N[C@@H](CO)C(=O)N[C@H](CCCNC(=N)N)C(=O)N[C@@H](CO)C(=O)NCC(=O)NCC(=O)N[C@H](C(=O)N[C@H](C(=O)N[C@@H](CCCNC(=N)N)C(=O)N[C@@H](CS)C(=O)N[C@@H](CC(N)=O)C(=O)N[C@@H](Cc1ccccc1)C(=O)N[C@H](C(=O)N1CCC[C@H]1C(=O)N[C@H](C(=O)N[C@@H](CC(=O)O)C(=O)N[C@H](C(=O)NCC(=O)N1CCC[C@H]1C(=O)N[C@@H](Cc1ccccc1)C(=O)N[C@@H](C)C(=O)N[C@@H](Cc1ccccc1)C(N)=O)C(C)C)[C@@H](C)O)C(C)C)C(C)C)C(C)C)[C@@H](C)O)C(C)C [compound 776] (Ac-WVTHRLAGLLS[dR]SGGVVRCNFVPTDVGPFAF-NH2) | 0.59
805 (Ac-WVTHRLAGLLSRSGGVVRC(20 kDa MeO‑PEG)NFVPTDVGPFAF-NH2) [compound 805] | 1.33
